Drawing on patent US9822115B2, “Nitrogen containing compounds and their use as antibacterial agents” (WOCKHARDT LIMITED, priority 2014, dated 2017), this text covers MIC and IC50 for 2 molecules.

Assay [1] deals with E. coli NCTC 13353 (CTX-M15, OXA-1). The experiment in a line: Antibacterial activity, MIC by agar dilution (CLSI). Particulars: Escherichia coli, read-out: MIC. The format is cell-based. The procedure, abridged:
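CLSI agar dilution on Mueller Hinton agar containing doubling compound dilutions, inoculated at about 10^4 CFU/spot from fresh cultures. Plates were incubated 18 h at 37 °C in ambient air before growth scoring. MIC is reported in mcg/ml.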

For assay [2], the system named is K. pneomoniae S48 (NDM, SHV, TEM). The assay is described as above. The format is cell-based, K. pneumoniae. Particulars: Klebsiella pneumoniae; Table 2; K. pneomoniae S48 (NDM, SHV, TEM); read-out: MIC. The procedure, abridged:
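Agar dilution per CLSI on Mueller Hinton agar with doubling compound dilutions, about 10^4 CFU/spot by multipoint inoculator. Plates incubated 16-20 h at 35±2° C in ambient air; procedure also gives 37° C for 18 h. MIC (mcg/ml) scored as growth or no growth.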

Assay [3] relates to T1, Class C beta-lactamase, E. coli M50 (CMY/DHA).
T1 construct: no borders, tags or purification printed
It counts as biochemical. Particulars: read-out: Beta-lactamase enzyme inhibition IC50. The procedure, abridged: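 Crude enzyme preincubated with inhibitor 10 min at 37 °C, then nitrocefin (100 uM) added for 5 min. Absorbance read at 485 nm; IC50 obtained from sigmoidal dose-response fit of absorbance versus concentration.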

The mark [4] stands for this setting: NCTC13353, Table 2, E. Coli NCTC 13353 (CTX-M15, OXA-1).
The mark [5] stands for this setting: NCTC13353, Table 3, E. coli NCTC 13353.

The structures appear in SMILES notation. Converted amounts (≈) assume the structure as drawn. Read-outs that look alike come from different tables or passages of the source.

Turning to `O=C(Cc1ccc(O)cc1)NNC(=O)[C@@H]1CC[C@@H]2CN1C(=O)N2OS(=O)(=O)[O-].[Na+]` [Example 1, Sodium Salt of (2S,5R)-Sulfuric Acid mono-[2-(N′-(4-hydroxyphenyl-acetyl)-hydrazinocarbonyl)-7-oxo-1,6-diaza-bicyclo[3.2.1]oct-6-yl]ester], the MIC in assay [1] (setting [4]), in assay [1] (setting [5]) and in assay [2] was 0.5 mg/L in each case. For the same molecule, the IC50 in assay [3] came to 0.005 µM.

Consider `NCCOc1ccccc1CC(=O)NNC(=O)[C@@H]1CC[C@@H]2CN1C(=O)N2OS(=O)(=O)O` [Example 2, (2S,5R)-Sulfuric Acid mono-[2-(N′-{2-[2-(2-amino-ethoxy)-phenyl]-acetyl}-hydrazinocarbonyl)-7-oxo-1,6-diaza-bicyclo[3.2.1]oct-6-yl]ester], for which the figures for the MIC in assay [1] (setting [4]), in assay [1] (setting [5]) and in assay [2] were 1 mg/L (≈ 2.19 µM), 0.5 mg/L (≈ 1.09 µM) and 1 mg/L (≈ 2.19 µM), respectively. Moreover, the IC50 in assay [3] turned out to be 0.122 µM.

What is called MIC is the smallest concentration in the dilution series that meets the test's criterion for growth inhibition. As a reminder, the IC50 is the midpoint of a concentration-inhibition curve.
